The text below walks through data of patent US8580752B2, “Aromatic amides as potentiators of bioefficacy of anti-infective drugs” (priority 2005, dated 2013).

Values after ≈ are worked out from the molar mass of the structure shown. Read-outs that look alike come from different tables or passages of the source.

In data set [1] the test system is MRSA. The data set can be described thus: MIC by checkerboard method, comparison with piperine. In kind it is cell-based, Staphylococcus aureus. Particulars: Staphylococcus aureus, Tables 5A/5B.
The next data set has as its system S epidermidis ATCC 12228. The data set can be described thus: MIC by checkerboard method. In kind it is cell-based.
For the next data set, the system named is MRSA 33. The data set can be described thus: MIC by checkerboard method. The format is cell-based. Particulars: Staphylococcus aureus, S aureus MRSA 33.
In another data set the test system is MRSA 450. The data set can be described thus: MIC by checkerboard method. The format is cell-based. Particulars: Staphylococcus aureus, S aureus MRSA 450.
For another data set, the system named is B cereus RRL 101. The data set can be described thus: MIC by checkerboard method. The format is cell-based.
A further data set relates to S aureus ATCC 29213. The data set can be described thus: MIC by checkerboard method. The format is cell-based, Staphylococcus aureus. The note with it: Staphylococcus aureus.
The next data set concerns M. tb. The data set can be described thus: MIC of anti infective drugs alone and with potentiators. The note with it: Mycobacterium tuberculosis, drug alone. The format is cell-based, Mycobacterium tuberculosis.
For data set [2], the system named is Staphylococcus aureus ATCC 29213. The data set can be described thus: Systemic infection model of mice. In kind it is in vivo, Swiss albino mice. Particulars: ATCC29213, iv, read-out: ED50 for ciprofloxacin.
Procedure: The study was conducted to see the in vivo response of ciprofloxacin in combination with the above-mentioned potentiator. The Swiss albino mice were infected intravenously with Staphylococcus aureus ATCC 29213 (10^7 CFU/mouse). The infected mice were divided in groups and each group consisted of 6 mice. The treatment consisted of one dose i.e. 5 or 10 or 20 mg/kg immediately after the infection followed by the next dose after a gap of 6 hrs. The result was recorded as number of survivals each day.
In another data set the test system is Gm −ve bacteria. The data set can be described thus: microbe, parasite or virus in culture. Particulars: read-out: MIC Drug alone. In kind it is cell-based, Gram negative.
The test system of data set [3] is S. aureus 29213, MRSA and M. tuberculosis H37Rv. The data set can be described thus: Comparison of potentiating activity with piperine. In kind it is cell-based. Particulars: Ciprofloxacin, Amikacin, Rifampicin and Mupirocin (Table-5 A & B). The method, then: Minimum Inhibitory Concentration (MIC) of antibacterial agents (Ciprofloxacin, Amikacin, Rifampicin and Mupirocin) was determined alone and in combination with compound of formula (1a). MIC of the abovementioned antibacterial agents was also determined in combination with piperine.

The subject of data set [4] is MRSA. The data set can be described thus: Wound infection treatment in mice. The format is in vivo. The note with it: for Growth / Mean CFU: MRSA wound infection in mice. The method, then: The study was conducted to see the in vivo response of Mupirocin in combination with the above-mentioned potentiator. Wound area of 1.5 cm×1.5 cm was created on the skin of mice by abrasion with sand paper. An inoculum of 10^8 CFU/ml of MRSA was applied on to this wound area. The wound was treated for five days (two applications a day) with mupirocin cream and the other group with a formulation of mupirocin at ¼^th concentration and compound of formula 1a. […] (Table-6).

Data set [5] deals with mice and guinea pig models infected with microorganisms. The data set can be described thus: In vivo infection models, combinations with anti-infective agents. An excerpt: These combinations were also efficacious when tested in in vivo using mice and guinea pig models infected with microorganisms (table-7).
The subject of data set [6] is Staphylococcus aureus, MRSA and Staphylococcus hemolyticus. The data set can be described thus: Decrease in MIC of ciprofloxacin in combination. The note with it: bacterial species (Table-2). The format is cell-based.
Another data set is described as follows: Acute toxicity study. The format is in vivo. Particulars: mice.
Data set [7] deals with S. aureus ATCC 29213 (wild strain). The data set can be described thus: Ethidium bromide accumulation and efflux. Particulars: compound 25 μg/ml, ethidium bromide 2 μg/ml.
Procedure: Briefly, for measurement of the level of accumulation, both the bacterial strains were grown overnight on Trypticase Soya Agar. Bacterial suspensions were prepared at an optical density at 550 nm of 0.2 in uptake buffer (NaCl, 110 mM; KCl, 7 mM; NH4Cl, 50 mM; Na2HPO4, 0.4 mM; Tris base, 52 mM; glucose, 0.2% adjusted to pH 7.5 with HCl) and were then exposed to ethidium bromide at a concentration of 2 μg/ml. The increase in fluorescence as ethidium bromide entered the cells was recorded fluorometrically with a Perkin-Elmer model LS50 spectrofluorimeter (excitation λ, 530 nm; emission λ, 600 nm) at 30° C.
For determining ethidium bromide loss, bacterial suspensions were prepared as described above and were exposed to ethidium bromide (2 μg/ml) in the presence of compound of formula 1a (25 μg/ml) for 30 min at 37° C. The cells were then pelleted by centrifugation and were resuspended in fresh uptake buffer. The loss of ethidium bromide from the cells was measured as a decrease in fluorescence (FIG. IB)
The subject of another data set is MRSA 15187. The data set can be described thus: MIC by checkerboard method. In kind it is cell-based. The note with it: Staphylococcus aureus; Mupirocin alone; S aureus MRSA 15187.
Where [8] appears, read: Amikacin alone, read-out: MIC of Amikacin.
Setting [9] is: Ciprofloxacin alone, read-out: MIC Ciprofloxacin.
Where [10] appears, read: 0.25% Mupirocin + 0.25% compound of formula 1.
The mark [11] stands for this setting: 0.5% Mupirocin + 0.25% compound of formula 1.
[12] abbreviates: 2% Mupirocin, five days, two applications a day.
Setting [13] is: Mupirocin alone, read-out: MIC of Mupirocin.

Source text for Acute toxicity study: Parameters monitored were: Food/water consumption, body weight, organ weight, haematological and clinical chemistry profile.

`NCC[C@H](O)C(=O)N[C@@H]1C[C@H](N)[C@@H](O[C@H]2O[C@H](CN)[C@@H](O)[C@H](O)[C@H]2O)[C@H](O)[C@H]1O[C@H]1O[C@H](CO)[C@@H](O)[C@H](N)[C@H]1O` [Amikacin, reference compound]: the MIC was 4 µg/mL with MRSA [1] (Amikacin alone, read-out: MIC Amikacin); 1 µg/mL in the data set with S epidermidis ATCC 12228 (setting [8]); 8 µg/mL in the data set with MRSA 33 (setting [8]); 16 µg/mL in the data set with MRSA 450 (setting [8]); 1 µg/mL with B cereus RRL 101 (setting [8]); 2 µg/mL in the data set with S aureus ATCC 29213 (ATCC29213, Amikacin alone, read-out: MIC of Amikacin). Moreover, in the data set with S aureus ATCC 29213 (ATCC29213, Tables 5A/5B, Amikacin alone, read-out: MIC Amikacin), the MIC stood at 2 µg/mL.

For `O=C(O)c1cn(C2CC2)c2cc(N3CCNCC3)c(F)cc2c1=O` [Ciprofloxacin, reference compound], the MIC is 0.5 to 1 µg/mL in the data set with M. tb; 32 µg/mL in the data set on MRSA [1] (setting [9]); 0.12 µg/mL in the data set on S epidermidis ATCC 12228 (setting [9]); 0.03 to 0.5 µg/mL (≈ 0.0905 to 1.51 µM) in the data set on Gm −ve bacteria; 32 µg/mL in the data set with MRSA 33 (setting [9]); 32 µg/mL with MRSA 450 (setting [9]). Further, the MIC in the data set with B cereus RRL 101 (setting [9]) came out at 0.12 µg/mL; with S aureus ATCC 29213 (ATCC29213, Ciprofloxacin alone, read-out: MIC Ciprofloxacin), 0.25 µg/mL; in the data set on S aureus ATCC 29213 (ATCC29213, Tables 5A/5B, Ciprofloxacin alone, read-out: MIC Ciprofloxacin), 0.25 µg/mL. In data set [2], the ED50 (commonly the midpoint of the dose-response relation) stood at 9.2 mg/kg.

Regarding `CCC(/C=C/C(=O)N1CCCCC1)=C\c1ccc2c(c1)OCO2` [compound of formula 1a, 4-ethyl-5-(3,4-methylenedioxyphenyl)-2E,4E-pentadienoic acid piperidine amide], in data set [3], the “potency relative to piperine in reducing the MICs of the antibacterial agents” value was “four times more potent than piperine”. Further, the Growth with MRSA [4] (setting [10]) was 4/5; in the data set with MRSA [4] (setting [11]), 1/5; in the data set on MRSA [4] (0.5% Mupirocin + 0.5% compound of formula 1), 0/5. The entries for the “Mean CFU” value with MRSA [4] (setting [10]) and in the data set on MRSA [4] (setting [11]) were 2.5 × 10^4 CFU and 4.0 × 10^3 CFU, respectively. The wound healing result in the data set with MRSA [4] (combination of mupirocin with compound of formula-1a vs mupirocin cream, MRSA-infected skin wound of mice, five days) is listed as “better wound healing”. Further, in [5], the “efficacy of combinations with anti-infective agents in vivo” value is listed as “efficacious”. Moreover, the “reductions in MIC of ciprofloxacin in combination with the potentiator” value in data set [6] was “Two to more than eight fold”. For the same compound, the “LD50 (oral)” value in “Acute toxicity study” is listed as more than 3.0 gm/kg. Also, the “accumulation of ethidium bromide” value in [7] (S. aureus wild type (FIG. IA)) is “Increased Accumulation”. The “efflux of ethidium bromide” value in data set [7] (S. aureus wild type (FIG. IB)) was “Decreased Efflux”.

For `C/C(=C\C(=O)OCCCCCCCCC(=O)O)C[C@@H]1OC[C@H](C[C@@H]2O[C@H]2[C@@H](C)[C@H](C)O)[C@@H](O)[C@H]1O` [Mupirocin, reference compound], the Growth in the data set on MRSA [4] (setting [12]) is 3/5. The “Mean CFU” value in the data set with MRSA [4] (setting [12]) is 1.08 × 10^4 CFU. The MIC in the data set with MRSA [1] (Mupirocin alone, read-out: MIC Mupirocin) was determined as 0.12 µg/mL; with MRSA 15187, 0.25 µg/mL; with MRSA 33 (setting [13]), 0.12 µg/mL; in the data set with MRSA 450 (setting [13]), 0.25 µg/mL; in the data set on S aureus ATCC 29213 (ATCC29213, Mupirocin alone, read-out: MIC of Mupirocin), 0.12 µg/mL; in the data set with S aureus ATCC 29213 (ATCC29213, Tables 5A/5B, Mupirocin alone, read-out: MIC Mupirocin), 0.12 µg/mL.
